Results reported in EPA's CvTdb concentration-time database.

Experiments:
Assay in all cases: concentration in plasma after dosing
[1] = tested on: Rat; conditions: dosed: DL-Camphor, 6 mg/kg, iv, Female, F344
[2] = tested on: Rat; conditions: dosed: DL-Camphor, 6 mg/kg, iv, Male, F344
[3] = tested on: Rat; conditions: 1 h; dosed: DL-Camphor; 6 mg/kg; iv; Female; F344
[4] = tested on: Rat; conditions: dosed: DL-Camphor, 6 mg/kg, iv, Male, F344; remark: listed apart in the source
[5] = tested on: Rat; conditions: 1.5 h; dosed: DL-Camphor; 6 mg/kg; iv; Male; F344
[6] = tested on: Rat; conditions: dosed: DL-Camphor, 6 mg/kg, iv, Female, F344; remark: listed apart in the source
[7] = tested on: Rat; conditions: 1.5 h; dosed: DL-Camphor; 6 mg/kg; iv; Female; F344
[8] = tested on: Rat; conditions: dosed: DL-Camphor, 6 mg/kg, iv, Female, F344; remark: listed apart in the source
[9] = tested on: Rat; conditions: dosed: DL-Camphor, 6 mg/kg, iv, Male, F344; remark: listed apart in the source
[10] = tested on: Rat; conditions: dosed: DL-Camphor, 6 mg/kg, iv, Male, F344; remark: listed apart in the source
[11] = tested on: Rat; conditions: dosed: DL-Camphor, 6 mg/kg, iv, Male, F344; remark: listed apart in the source
[12] = tested on: Rat; conditions: 6 h; dosed: DL-Camphor; 6 mg/kg; iv; Male; F344
[13] = tested on: Rat; conditions: 1 h; dosed: DL-Camphor; 6 mg/kg; iv; Female; F344; remark: listed apart in the source
[14] = tested on: Rat; conditions: dosed: DL-Camphor, 6 mg/kg, iv, Male, F344; remark: listed apart in the source
[15] = tested on: Rat; conditions: dosed: DL-Camphor, 6 mg/kg, iv, Female, F344; remark: listed apart in the source
[16] = tested on: Rat; conditions: dosed: DL-Camphor, 6 mg/kg, iv, Female, F344; remark: listed apart in the source
[17] = tested on: Rat; conditions: dosed: DL-Camphor, 6 mg/kg, iv, Male, F344; remark: listed apart in the source
[18] = tested on: Rat; conditions: dosed: DL-Camphor, 6 mg/kg, iv, Female, F344; remark: listed apart in the source
[19] = tested on: Rat; conditions: dosed: DL-Camphor, 6 mg/kg, iv, Male, F344; remark: listed apart in the source
[20] = tested on: Rat; conditions: iv, F344
[21] = tested on: Rat; conditions: 1.5 h; dosed: DL-Camphor; 6 mg/kg; iv; Female; F344; remark: listed apart in the source
[22] = tested on: Rat; conditions: dosed: DL-Camphor, 6 mg/kg, iv, Male, F344; remark: listed apart in the source
[23] = tested on: Rat; conditions: dosed: DL-Camphor, 6 mg/kg, iv, Female, F344; remark: listed apart in the source
[24] = tested on: Rat; conditions: dosed: DL-Camphor, 6 mg/kg, iv, Male, F344; remark: listed apart in the source
[25] = tested on: Rat; conditions: dosed: DL-Camphor, 6 mg/kg, iv, Female, F344; remark: listed apart in the source
[26] = tested on: Rat; conditions: dosed: Bromodichloromethane, 10 mg/kg, iv, Female, F344
[27] = tested on: Rat; conditions: 1 h; dosed: Bromodichloromethane; 10 mg/kg; iv; Female; F344
[28] = tested on: Rat; conditions: dosed: Bromodichloromethane, 10 mg/kg, iv, Male, F344
[29] = tested on: Rat; conditions: 1 h; dosed: Bromodichloromethane; 10 mg/kg; iv; Female; F344; remark: listed apart in the source
[30] = tested on: Rat; conditions: dosed: Bromodichloromethane, 10 mg/kg, iv, Female, F344; remark: listed apart in the source
[31] = tested on: Rat; conditions: dosed: Bromodichloromethane, 10 mg/kg, iv, Female, F344; remark: listed apart in the source
[32] = tested on: Rat; conditions: 4 h; dosed: Bromodichloromethane; 10 mg/kg; iv; Male; F344
[33] = tested on: Rat; conditions: 10 min; dosed: Bromodichloromethane; 10 mg/kg; iv; Female; F344
[34] = tested on: Rat; conditions: 10 min; dosed: Bromodichloromethane; 10 mg/kg; iv; Male; F344
[35] = tested on: Rat; conditions: dosed: Bromodichloromethane, 10 mg/kg, iv, Male, F344; remark: listed apart in the source
[36] = tested on: Rat; conditions: dosed: Bromodichloromethane, 10 mg/kg, iv, Male, F344; remark: listed apart in the source
[37] = tested on: Rat; conditions: dosed: Bromodichloromethane, 10 mg/kg, iv, Female, F344; remark: listed apart in the source
[38] = tested on: Rat; conditions: dosed: Bromodichloromethane, 10 mg/kg, iv, Female, F344; remark: listed apart in the source
[39] = tested on: Rat; conditions: dosed: Bromodichloromethane, 10 mg/kg, iv, Male, F344; remark: listed apart in the source
[40] = tested on: Rat; conditions: 1 h; dosed: Bromodichloromethane; 10 mg/kg; iv; Male; F344
[41] = tested on: Rat; conditions: dosed: Bromodichloromethane, 10 mg/kg, iv, Male, F344; remark: listed apart in the source
[42] = tested on: Rat; conditions: dosed: Bromodichloromethane, 10 mg/kg, iv, Male, F344; remark: listed apart in the source
[43] = tested on: Rat; conditions: 1 h; dosed: Bromodichloromethane; 10 mg/kg; iv; Male; F344; remark: listed apart in the source
[44] = tested on: Rat; conditions: dosed: Bromodichloromethane, 10 mg/kg, iv, Male, F344; remark: listed apart in the source
[45] = tested on: Rat; conditions: dosed: Bromodichloromethane, 10 mg/kg, iv, Female, F344; remark: listed apart in the source
[46] = tested on: Rat; conditions: 10 min; dosed: Bromodichloromethane; 10 mg/kg; iv; Male; F344; remark: listed apart in the source
[47] = tested on: Rat; conditions: dosed: Bromodichloromethane, 10 mg/kg, iv, Female, F344; remark: listed apart in the source
[48] = tested on: Rat; conditions: dosed: Bromodichloromethane, 10 mg/kg, iv, Female, F344; remark: listed apart in the source
[49] = tested on: Rat; conditions: dosed: Bromodichloromethane, 10 mg/kg, iv, Female, F344; remark: listed apart in the source
[50] = tested on: Rat; conditions: dosed: Bromodichloromethane, 10 mg/kg, iv, Female, F344; remark: listed apart in the source

CC12CCC(CC1=O)C2(C)C (racemic) [DL-Camphor]
Conditions	concentration in plasma [ng/mL]
[1], 0.75 h	526
[1], 8 h	98.3
[2], 2 h	205
[2], 5 min	3700
[4], 2 h	205
[4], 5 min	4050
[6], 0.25 h	1520
[6], 6 h	18.3
[8], 0.75 h	114
[8], 8 h	46.7
[9], 1 h	411
[9], 10 h	35
[10], 0.25 h	1680
[10], 1.5 h	197
[11], 1 h	257
[11], 10 h	77.4
[14], 0.5 h	648
[14], 4 h	127
[15], 0.5 h	612
[15], 4 h	61.7
[16], 2 h	191
[16], 5 min	3070
[17], 0.75 h	577
[17], 8 h	31.3
[18], 0.25 h	132
[18], 6 h	70.2
[19], 0.25 h	1710
[19], 6 h	88.1
[22], 0.75 h	545
[22], 8 h	49.1
[23], 0.5 h	848
[23], 4 h	62.7
[24], 0.5 h	258
[24], 4 h	135
[25], 2 h	152
[25], 5 min	2850

Conditions	concentration in plasma [ng/mL]
[3]	391
[5]	228
[7]	240
[12]	87
[13]	411
[21]	121

concentration in plasma [ng/mL], [20], dosed: DL-Camphor, 6 mg/kg
Conditions	Female	Male
0.25 h	1250	1350
0.5 h	731	839
0.75 h	527	617
1 h	96	326
1.5 h	332	196
2 h	221	186
4 h	65.9	138
5 min	3000	4140
6 h	222	76.7
8 h	–	31
10 h	10.3	27.3

ClC(Cl)Br [Bromodichloromethane]
Conditions	concentration in plasma [ng/mL]
[26], 0.25 h	618
[26], 8 h	3.69
[28], 2 min	2880
[28], 6 h	16.1
[30], 4 h	9.88
[30], 5 min	2300
[31], 2 min	2280
[31], 6 h	8.65
[35], 2 min	3310
[35], 6 h	26.3
[36], 0.25 h	535
[36], 8 h	6.97
[37], 0.5 h	203
[37], 4 h	13.8
[38], 0.5 h	307
[38], 2 h	40.2
[39], 0.5 h	402
[39], 2 h	42.5
[41], 0.25 h	1340
[41], 8 h	3.44
[42], 2 h	56.3
[42], 5 min	2210
[44], 4 h	21.8
[44], 5 min	2570
[45], 2 min	1680
[45], 6 h	11.9
[47], 2 h	18.4
[47], 10 min	926
[48], 0.25 h	341
[48], 8 h	10.7
[49], 0.25 h	44.5
[49], 8 h	6.93
[50], 0.5 h	67.9
[50], 2 h	87.6

Conditions	concentration in plasma [ng/mL]
[27]	92.4
[29]	68
[32]	11.1
[33]	779
[34]	1310
[40]	186
[43]	151
[46]	1640

concentration in plasma [ng/mL], [20], dosed: Bromodichloromethane, 10 mg/kg
Conditions	Female	Male
0.25 h	70.4	1070
0.5 h	312	220
1 h	62.1	105
2 h	63.4	60.8
2 min	2590	2820
4 h	7.81	15.7
5 min	1170	1100
6 h	7.86	31.4
8 h	6.28	4.65
10 min	589	1070
12 h	–	3.96
